Measured values published in patent US10729759B2, “Fluorocarbon-linked peptide formulation” (priority 2010, dated 2020).
Entries after “also recorded” stand apart in the source; their conditions may differ.

Columns and labels:
[1] = format: physicochemical; conditions: for Further dilution in Mannitol:Water Solubility: FCP 0.167 mM, 1.33% (w/v) mannitol, cloudiness / particulates; for Dispersion in Water Solubility: FCP 1.333 mM in water, vortexed and sonicated, cloudiness (Clear/Cloudy−/Cloudy/Cloudy+) / particulates
Method: The solubility of each FCP in water was assessed. Each FCP was dispersed in 300 μl of water to a final concentration of 1.333 mM and vortexed and sonicated. The typical dispersion conditions were four sequences of three minutes bath sonication interspersed by 30 seconds vortexing. After inspection, the resulting solution was diluted with a mannitol solution (a candidate lyophilisation medium, final concentration of peptide 0.167 mM, 1.33% (w/v) mannitol). Solubility was assessed by visual observation of the cloudiness of the resulting dispersion (scaled: Clear/Cloudy−/Cloudy/Cloudy+) and presence of particulates. […]

[2] = format: physicochemical; conditions: 1.33% mannitol, 0.22 μm PVDF filter; for YIELD % of each FCP following sterile filtration, MIX 2: MIX 2 dispersed in water

Row | Structure (SMILES) | Further dilution in Mannitol:Water Solubility [1] | Dispersion in Water Solubility [1] | YIELD % of each FCP following sterile filtration, MIX 1 ([2]; MIX 1 dispersed in water) [%] | YIELD % of each FCP following sterile filtration, MIX 2 [2] [%]
1 | CC[C@H](C)[C@H](NC(=O)[C@@H]1CCCN1C(=O)[C@H](C)NC(=O)[C@@H](N)CCCCNC(=O)CCC(F)(F)C(F)(F)C(F)(F)C(F)(F)C(F)(F)C(F)(F)C(F)(F)C(F)(F)F)C(=O)N[C@@H](CCSC)C(=O)N[C@@H](Cc1ccccc1)C(=O)N[C@@H](CO)C(=O)N[C@@H](CC(N)=O)C(=O)N[C@@H](CCCCN)C(=O)N[C@@H](CCSC)C(=O)N[C@@H](C)C(=O)N[C@@H](CCCNC(=N)N)C(=O)N[C@@H](CC(C)C)C(=O)NCC(=O)N[C@@H](CCCCN)C(=O)NCC(=O)N[C@@H](Cc1ccc(O)cc1)C(=O)N[C@@H](CCSC)C(=O)N[C@@H](Cc1ccccc1)C(=O)N[C@@H](CCC(=O)O)C(=O)N[C@@H](CO)C(=O)N[C@@H](CCCCN)C(=O)N[C@@H](CO)C(=O)N[C@@H](CCSC)C(=O)N[C@@H](CCCCN)C(=O)N[C@@H](CC(C)C)C(=O)N[C@@H](CCCNC(=N)N)C(=O)N[C@H](C(=O)N[C@@H](CCC(N)=O)C(=O)N[C@H](C(=O)N1CCC[C@H]1C(=O)N[C@@H](C)C(=O)N[C@@H](CCC(=O)O)C(=O)N[C@@H](CCSC)C(=O)N[C@@H](CC(C)C)C(=O)N[C@@H](C)C(N)=O)[C@@H](C)CC)[C@@H](C)O [FCP3] | partially soluble; also recorded: Clear/Particulates | Cloudy−/Particulates | 28.6 | 
2 | CC[C@H](C)[C@H](NC(=O)[C@H](CO)NC(=O)[C@H](CC(C)C)NC(=O)[C@@H](NC(=O)[C@H](CC(N)=O)NC(=O)[C@H](CCCNC(=N)N)NC(=O)[C@H](Cc1ccccc1)NC(=O)[C@H](Cc1c[nH]c2ccccc12)NC(=O)[C@H](CCC(=O)O)NC(=O)[C@@H]1CCCN1C(=O)[C@H](CCC(N)=O)NC(=O)[C@H](CC(N)=O)NC(=O)[C@H](CCCCN)NC(=O)[C@@H](NC(=O)[C@@H](NC(=O)[C@H](Cc1ccc(O)cc1)NC(=O)[C@@H](N)CCCCNC(=O)CCC(F)(F)C(F)(F)C(F)(F)C(F)(F)C(F)(F)C(F)(F)C(F)(F)C(F)(F)F)[C@@H](C)CC)[C@@H](C)O)[C@@H](C)CC)C(=O)N[C@@H](C)C(=O)N1CCC[C@H]1C(=O)N[C@H](C(=O)N[C@@H](CCSC)C(=O)N[C@@H](Cc1ccccc1)C(=O)N[C@@H](CO)C(=O)N[C@@H](CC(N)=O)C(=O)N[C@@H](CCCCN)C(=O)N[C@@H](CCSC)C(=O)N[C@@H](C)C(=O)N[C@@H](CCCNC(=N)N)C(=O)N[C@@H](CC(C)C)C(=O)NCC(=O)N[C@@H](CCCCN)C(=O)NCC(=O)N[C@@H](Cc1ccc(O)cc1)C(=O)N[C@@H](CCSC)C(=O)N[C@@H](Cc1ccccc1)C(=O)N[C@@H](CCC(=O)O)C(N)=O)[C@@H](C)CC [FCP10] | partially soluble; also recorded: Clear/Particulates | Cloudy−/Particulates |  | 90.7
3 | CC[C@H](C)[C@H](NC(=O)[C@H](CCCNC(=N)N)NC(=O)[C@H](CCSC)NC(=O)CNC(=O)[C@H](CO)NC(=O)CNC(=O)[C@H](CCCNC(=N)N)NC(=O)[C@@H](NC(=O)[C@H](CC(N)=O)NC(=O)[C@@H](NC(=O)[C@@H](NC(=O)[C@H](CC(C)C)NC(=O)[C@H](CO)NC(=O)[C@H](CO)NC(=O)[C@H](Cc1ccccc1)NC(=O)[C@H](CCC(N)=O)NC(=O)[C@H](CCSC)NC(=O)[C@H](CCCNC(=N)N)NC(=O)[C@H](CO)NC(=O)[C@H](CCC(N)=O)NC(=O)[C@@H](N)CCCCNC(=O)CCC(F)(F)C(F)(F)C(F)(F)C(F)(F)C(F)(F)C(F)(F)C(F)(F)C(F)(F)F)[C@@H](C)O)C(C)C)C(C)C)C(=O)N[C@@H](CC(C)C)C(=O)N[C@H](C(=O)N[C@@H](CCCNC(=N)N)C(=O)NCC(=O)N[C@@H](CC(N)=O)C(=O)N[C@@H](CO)C(=O)N1CCC[C@H]1C(=O)N[C@H](C(=O)N[C@@H](Cc1ccccc1)C(=O)N[C@@H](CC(N)=O)C(=O)N[C@@H](Cc1ccc(O)cc1)C(=O)N[C@@H](CC(N)=O)C(=O)N[C@@H](CCCCN)C(N)=O)C(C)C)C(C)C [FCP11] | fully soluble; also recorded: Clear/No Particulates | fully soluble; also recorded: Clear/No Particulates |  | 49.4
